Measurements as given in patent publication US4204003A, “N-(2-Aminocyclopentyl)-N-alkanoylanilides as CNS anti-depressants” (The Upjohn Company, priority 1978, dated 1980).

What was measured:
[1] = rat liver microsome incubation system (metabolism); format: in vitro ADME; details: from the corresponding N-[2-(dimethylamino)cyclopentyl]propionanilide compound
yohimbine toxicity = assay: standard yohimbine toxicity potentiation test; format: in vivo; details: ip; intraperitoneally
oxotremorine hypothermia = assay: standard oxotremorine hypothermia antagonism test; format: in vivo; details: ip; intraperitoneally
[2] = literature (J. Pharmaceutical Sciences, December 1974); cited from earlier work
[3] = literature (J. Pharmaceutical Sciences, December 1974); cited from earlier work; remark: listed apart in the source

| Compound | ED50 (yohimbine toxicity) [mg/kg] | ED50 (oxotremorine hypothermia) [mg/kg] | other results |
| --- | --- | --- | --- |
| 2-(N-methylamino)cyclopentylpropionanilide |  |  | metabolite formed in rat liver microsome incubation [1]: is a metabolite of the corresponding N-[2-(dimethylamino)cyclopentyl]propionanilide compound |
| CCC(=O)N(c1ccc(Cl)c(Cl)c1)[C@@H]1CCC[C@H]1N (relative stereo) [Trans-3,4-dichloro-N-(2-aminocyclopentyl)-propionanilide] | < 1 | < 1 |  |
| CCC(=O)N(c1ccc(Cl)c(Cl)c1)[C@@H]1CCC[C@H]1NC (relative stereo) [Trans-3,4-dichloro-N-[2-(N-methylamino)-cyclopentyl]propionanilide] | < 1 | < 1 |  |
| ON(c1ccccc1)C1CCCCC1N1CCCC1 (stereo not shown) [N-[2-(N-pyrrolidinyl)cyclohexyl]-N-phenylhydroxylamine] |  |  | CNS properties [2]: do not have useful CNS properties |
| COc1ccc(C(O)C2CCCCC2N2CCCCC2)cc1 (stereo not shown) [[2-(N-piperidinylcyclohexyl]-(4-methoxyphenyl)methanol] |  |  | diuretic activity [3]: Diuretic activity is alleged |
